Records with an inconclusive call do not appear.
System: CCRF-CEM viability, CellTiter-Glo ATP luminescence, 8-48 h
Experiment: CCRF-CEM leukemia cell viability loss, dose response, HRAS target identification, CellTiter-Glo ATP luminescence, 8/24/48 h, dry powder (AID 720607)

SMILES	AC50 (measured here: 8 h treatment) [µM]	AC50 (measured here: 24 h treatment) [µM]	AC50 (measured here: 48 h treatment) [µM]
C#CCCCC(=O)NCCOCCOCCOc1ccc(N(C(=O)CCl)C(C(=O)NCCc2ccccc2)c2cccs2)cc1Cl (stereo not given)	2.98	0.588	0.565
COC(=O)c1ccc([C@@H]2c3[nH]c4ccccc4c3C[C@@H](C(=O)OC)N2C(=O)CCl)cc1	0.272	0.0199	0.0234
CC(C)(C)OC(=O)NCCOCCOCCOc1ccc(N(C(=O)CCl)C(C(=O)NCCc2ccccc2)c2cccs2)cc1Cl (stereo not given)	0.454	0.0344	0.0415
COc1ccc(N(C(=O)CCl)C(C(=O)NCCc2ccccc2)c2cccs2)cc1Cl (stereo not given)	0.321	0.039	0.0387
Cc1onc(C(=O)N2CCN(C(c3ccc(Cl)cc3)c3ccc(Cl)cc3)CC2)c1[N+](=O)[O-]	0.553	0.0689	0.0788

— PubChem BioAssay AID720607 (Broad Institute, 2013)
